Measured values: paper PMC5464344, “Analgesic and anti‐inflammatory properties of novel, selective, and potent EP4 receptor antagonists” (Pharmacology Research & Perspectives, 2017)

Columns and labels:
[1] = molecular target: T1, IP (PGI2) (h), agonist radioligand (Homo sapiens, UniProt P43119); test: Off-target activity (CEREP), IP; assay type: binding; settings: 10 μmol/L; obtained at CEREP (Blanco et al. 2016c); read-out: % Inh IP (PGI2) (h), agonist radioligand
T1 construct: CEREP (contract laboratory that ran the assay)
T1 sequence (P43119 whole entry): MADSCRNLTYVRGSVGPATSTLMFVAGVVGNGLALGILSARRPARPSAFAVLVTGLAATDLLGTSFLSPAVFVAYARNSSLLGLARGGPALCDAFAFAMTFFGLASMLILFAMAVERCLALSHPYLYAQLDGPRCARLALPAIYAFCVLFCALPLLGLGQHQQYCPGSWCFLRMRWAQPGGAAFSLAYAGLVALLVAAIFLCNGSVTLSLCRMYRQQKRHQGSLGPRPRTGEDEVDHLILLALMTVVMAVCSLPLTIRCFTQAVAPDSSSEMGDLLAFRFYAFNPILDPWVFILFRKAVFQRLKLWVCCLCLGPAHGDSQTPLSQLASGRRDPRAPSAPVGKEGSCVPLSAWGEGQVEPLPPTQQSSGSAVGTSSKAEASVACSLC
Excerpt: (§1) The off‐target activity related to prostaglandin pathway (Table 2) were obtained at CEREP (Blanco et al. 2016c).

[2] = molecular target: T2, TP (TXA2/PGH2) (h); antagonist effect (Homo sapiens, UniProt P21731); test: Off-target activity (CEREP), TP antagonist effect; assay type: biochemical; settings: 10 μmol/L; obtained at CEREP (Blanco et al. 2016c)
T2 construct: CEREP (contract laboratory that ran the assay)
T2 sequence (P21731 1-343): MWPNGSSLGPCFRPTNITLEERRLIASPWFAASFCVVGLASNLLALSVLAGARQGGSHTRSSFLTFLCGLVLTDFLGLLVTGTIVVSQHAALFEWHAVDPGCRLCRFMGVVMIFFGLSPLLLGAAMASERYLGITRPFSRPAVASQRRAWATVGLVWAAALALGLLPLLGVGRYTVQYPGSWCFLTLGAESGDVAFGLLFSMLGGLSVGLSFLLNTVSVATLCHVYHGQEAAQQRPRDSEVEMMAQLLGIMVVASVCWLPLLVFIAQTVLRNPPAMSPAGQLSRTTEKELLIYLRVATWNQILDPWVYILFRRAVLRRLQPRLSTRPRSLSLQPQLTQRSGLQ
Excerpt: as §1

[3] = molecular target: T3, DP1(h); agonist radioligand (Homo sapiens, UniProt Q13258); test: Off-target activity (CEREP), DP1; assay type: binding; settings: 10 μmol/L; obtained at CEREP (Blanco et al. 2016c)
T3 construct: CEREP (contract laboratory that ran the assay)
T3 sequence (Q13258 1-359): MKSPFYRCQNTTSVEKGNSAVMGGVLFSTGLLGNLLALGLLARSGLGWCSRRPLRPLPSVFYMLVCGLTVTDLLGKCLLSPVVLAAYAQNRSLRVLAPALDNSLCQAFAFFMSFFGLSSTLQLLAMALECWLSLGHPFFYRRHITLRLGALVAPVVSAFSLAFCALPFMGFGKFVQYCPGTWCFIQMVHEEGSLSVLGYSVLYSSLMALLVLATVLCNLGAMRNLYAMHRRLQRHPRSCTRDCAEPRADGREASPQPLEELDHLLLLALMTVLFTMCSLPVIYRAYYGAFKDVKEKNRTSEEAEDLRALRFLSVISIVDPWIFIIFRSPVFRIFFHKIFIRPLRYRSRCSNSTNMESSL
Excerpt: as §1

COX2 (h) = molecular target: T4, COX2 (h) (Homo sapiens, UniProt P35354); test: Off-target activity (CEREP), COX2; assay type: biochemical; settings: 10 μmol/L; obtained at CEREP (Blanco et al. 2016c); read-out: % Inh COX2 (h)
T4 construct: CEREP (contract laboratory that ran the assay)
T4 sequence (P35354 18-604): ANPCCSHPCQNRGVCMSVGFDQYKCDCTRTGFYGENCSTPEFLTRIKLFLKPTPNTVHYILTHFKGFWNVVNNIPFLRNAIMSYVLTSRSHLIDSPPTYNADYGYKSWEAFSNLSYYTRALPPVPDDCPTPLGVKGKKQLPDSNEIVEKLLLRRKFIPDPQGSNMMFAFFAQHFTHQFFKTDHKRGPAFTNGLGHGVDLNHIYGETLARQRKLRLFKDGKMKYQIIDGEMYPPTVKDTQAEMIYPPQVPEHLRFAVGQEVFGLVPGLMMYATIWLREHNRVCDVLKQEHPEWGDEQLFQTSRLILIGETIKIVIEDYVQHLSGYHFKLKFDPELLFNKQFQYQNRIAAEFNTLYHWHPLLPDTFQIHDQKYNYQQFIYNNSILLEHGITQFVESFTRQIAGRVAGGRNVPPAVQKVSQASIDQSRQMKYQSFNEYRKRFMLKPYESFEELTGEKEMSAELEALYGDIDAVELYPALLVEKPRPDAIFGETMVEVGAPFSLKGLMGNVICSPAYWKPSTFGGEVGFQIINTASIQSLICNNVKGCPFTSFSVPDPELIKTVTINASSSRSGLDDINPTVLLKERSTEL
Excerpt: as §1

human EP1 receptor = molecular target: T5, human EP1 receptor (Homo sapiens, UniProt P34995); test: [3H]-PGE2 receptor binding assay, EP1 membranes; settings: HEK293 membranes; [3H]-PGE2; geometric mean ± SEM; read-out: hEP1-4 receptor binding EP1 Ki
T5 construct: membrane preparation
T5 sequence (P34995 1-402): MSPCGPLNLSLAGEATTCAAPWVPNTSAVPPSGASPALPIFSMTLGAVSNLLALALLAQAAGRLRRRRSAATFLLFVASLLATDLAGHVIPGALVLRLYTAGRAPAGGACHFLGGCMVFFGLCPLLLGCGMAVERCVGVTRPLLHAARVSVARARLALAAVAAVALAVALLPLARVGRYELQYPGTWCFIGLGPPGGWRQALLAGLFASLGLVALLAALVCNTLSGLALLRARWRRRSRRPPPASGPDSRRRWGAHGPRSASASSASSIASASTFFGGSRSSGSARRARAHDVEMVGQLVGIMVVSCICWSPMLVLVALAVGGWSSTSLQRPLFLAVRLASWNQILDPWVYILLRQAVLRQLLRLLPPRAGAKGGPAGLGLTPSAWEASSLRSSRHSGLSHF
Procedure: Receptor binding assays were done using membrane preparations of HEK 293 cells transfected with various prostanoid receptors using previously published procedure (Nakao et al. 2007). EP1 and EP4 membranes were prepared from recombinant HEK293 cells stably expressing human EPl receptor (GenBank Accession # AY275470, Clone ID PER0100000, UMR cDNA Resource Center, Rolla, MO) or human EP4 receptor. EP2 and EP3 membranes were prepared from HEK293 cells transiently transfected with human EP2 receptor (GenBank Accession # AY275471, Clone ID PER0200000, UMR cDNA Resource Center, Rolla, MO) or human EP3 receptor (GenBank Accession # AY429108, Clone ID PER3VI0000, UMR cDNA Resource Center, Rolla, MO) plasmids. Frozen cell pellets were homogenized in homogenization buffer (10 mmol/L Tris‐HCl, pH7.4, 250 mmol/L sucrose, 1 mmol/L EDTA, 0.3 mmol/L indomethacin and protease inhibitor cocktail with EDTA (Roche Molecular Biochemicals, catalog # 1691498)) using a Teflon/glass homogenizer. After a low speed centrifugation (200g for 15 min at 4°C) the supernatant was subjected to high speed centrifugation (30,000g for 60 min at 4°C). Membrane protein preparation was aliquoted and quick frozen on dry ice prior to storage at −80°C. […] Compounds were tested in a 96‐well format using a three‐fold dilution series to generate 10‐point curves. […] The binding reaction was performed in 200 μL MES buffer (10 mmol/L MES, pH 6.0, 10 mmol/L MgCl2, and l mmol/L EDTA) using polystyrene 96‐well plates. […] The membranes were harvested by filtration (TomTek harvester), washed four times with cold buffer (10 mmol/L MES, pH 6.0, 10 mmol/L MgCl2), dried in a 60°C oven, and the radioactivity was quantified as counts per min (CPM) using a TopCount detector. […] Data were analyzed using a 4‐parameter nonlinear logistic equation. K i Conversion from IC50 Values (K i = […] where [L] is the ligand concentration). Results are expressed as the geometric mean ± standard deviation or geometric mean ± standard error as noted.

SMILES | inhibition at 10 µM [1] [%] | % Inh TP (TXA2/PGH2) (h); antagonist effect [2] [%] | % Inh DP1(h); agonist radioligand [3] [%] | inhibition at 10 µM (COX2 (h)) [%] | Ki (human EP1 receptor) [µM]
C[C@H](NC(=O)[C@H]1CCCCN1CCOc1ccccc1)c1ccc(C(=O)O)cc1 [Compound 2] | 9 | −12.00 | −4.00 | -17 | –
C[C@H](NC(=O)c1cc(Cl)ccc1Oc1ccc(F)cc1)c1ccc(C(=O)O)cc1 [CJ‐042,794, reference compound] | – | – | – | – | > 26.7
Cc1ccc(N2CCC(O)CC2)nc1C(=O)Nc1c(C)cc(C(=O)O)cc1C [Compound 1] | -4 | −12.00 | 0.00 | -10 | –
Cc1ccc(-c2cccc(CO)c2)nc1C(=O)Nc1c(C)ccc(C(=O)O)c1C [Compound 3] | – | – | – | – | > 17.5
